ChEMBL document CHEMBL1909281, “FDA-approved drug labeling for the study of drug-induced liver injury” (Drug Discov Today, 2011)

What follows are compounds tested on Hepatotoxicity. Conditions: not given.
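Also: severity score taken from the FDA LTKB benchmark dataset, subset of drugs classed as lower DILI concern.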

Row | Structure (SMILES) | LTKB_BD DILI severity score
1 | CCOC(=O)[C@H](CCc1ccccc1)N[C@@H](C)C(=O)N1CCC[C@H]1C(=O)O | 4
2 | Nc1nc2c(ncn2COCCO)c(=O)[nH]1 [ACYCLOVIR] | 5
3 | Oc1ncnc2[nH]ncc12 [ALLOPURINOL] | 3
4 | CN(C)c1nc(N(C)C)nc(N(C)C)n1 [ALTRETAMINE] | 2
5 | NC12CC3CC(CC(C3)C1)C2 [AMANTADINE] | 3
6 | CC1(C)S[C@@H]2[C@H](NC(=O)[C@H](N)c3ccc(O)cc3)C(=O)N2[C@H]1C(=O)O [AMOXICILLIN] | 3
7 | CC(C)NCC(O)COc1ccc(COCCOC(C)C)cc1 (stereo not given) [BISOPROLOL] | 3
8 | CC(NC(C)(C)C)C(=O)c1cccc(Cl)c1 (stereo not given) [BUPROPION] | 5
9 | O=C1CC2(CCCC2)CC(=O)N1CCCCN1CCN(c2ncccn2)CC1 [BUSPIRONE] | 3
10 | C[C@H](CS)C(=O)N1CCC[C@H]1C(=O)O [CAPTOPRIL] | 6
11 | O=NN(CCCl)C(=O)NCCCl [CARMUSTINE] | 3
12 | CCN(CC)CCCC(C)Nc1ccnc2cc(Cl)ccc12 (stereo not given) [CHLOROQUINE] | 3
13 | CN(C)CCCN1c2ccccc2Sc2ccc(Cl)cc21 [CHLORPROMAZINE] | 2
14 | CCCNC(=O)NS(=O)(=O)c1ccc(Cl)cc1 [CHLORPROPAMIDE] | 2
15 | CCOC(=O)C(C)(C)Oc1ccc(Cl)cc1 [CLOFIBRATE] | 3
16 | Clc1ccccc1C(c1ccccc1)(c1ccccc1)n1ccnc1 [CLOTRIMAZOLE] | 3
17 | CN1CCN(C2=Nc3cc(Cl)ccc3Nc3ccccc32)CC1 [CLOZAPINE] | 2
18 | COc1cc2c(c(OC)c1OC)-c1ccc(OC)c(=O)cc1[C@@H](NC(C)=O)CC2 [COLCHICINE] | 6
19 | O=C([O-])c1cc(=O)c2c(OCC(O)COc3cccc4oc(C(=O)[O-])cc(=O)c34)cccc2o1.[Na+].[Na+] [CROMOLYN SODIUM] | 3
20 | C[C@@H]1C[C@H]2[C@@H]3CCC4=CC(=O)C=C[C@]4(C)[C@@]3(F)[C@@H](O)C[C@]2(C)[C@@]1(O)C(=O)CO [DEXAMETHASONE] | 3
21 | C[C@H]1c2cccc(O)c2C(=O)C2=C(O)[C@]3(O)C(=O)C(C(N)=O)=C(O)[C@@H](N(C)C)[C@@H]3[C@@H](O)[C@@H]21.O [DOXYCYCLINE] | 3
22 | C[C@]12CC[C@@H]3c4ccc(O)cc4CC[C@H]3[C@@H]1CC[C@@H]2O [ESTRADIOL] | 2
23 | C=C(CC)C(=O)c1ccc(OCC(=O)O)c(Cl)c1Cl [ETHACRYNIC ACID] | 5
24 | CC(C)OC(=O)C(C)(C)Oc1ccc(C(=O)c2ccc(Cl)cc2)cc1 [FENOFIBRATE] | 3
25 | CNCCC(Oc1ccc(C(F)(F)F)cc1)c1ccccc1 (stereo not given) [FLUOXETINE] | 3
26 | CC(C(=O)O)c1ccc(-c2ccccc2)c(F)c1 (stereo not given) [FLURBIPROFEN] | 3
27 | Nc1nc(O)c2ncn(COC(CO)CO)c2n1 [GANCICLOVIR] | 7
28 | Cc1ccc(C)c(OCCCC(C)(C)C(=O)O)c1 [GEMFIBROZIL] | 3

Same assay, conditions: Liver

Row | Structure (SMILES) | LTKB_BD DILI severity score
29 | CC(C)(C)NC(=O)[C@@H]1C[C@@H]2CCCC[C@@H]2CN1C[C@@H](O)[C@H](Cc1ccccc1)NC(=O)[C@H](CC(N)=O)NC(=O)c1ccc2ccccc2n1 | 3
30 | Cn1cnc([N+](=O)[O-])c1Sc1ncnc2nc[nH]c12 [AZATHIOPRINE] | 3
31 | CN/C(=N/CCSCc1nc[nH]c1C)NC#N [CIMETIDINE] | 2
32 | Clc1cccc(Cl)c1N=C1NCCN1 [CLONIDINE] | 3
33 | O=P1(N(CCCl)CCCl)NCCCO1 (stereo not given) [CYCLOPHOSPHAMIDE ANHYDROUS] | 5
34 | CNCCCN1c2ccccc2CCc2ccccc21 [DESIPRAMINE] | 3
35 | NC(N)=Nc1nc(CSCCC(N)=NS(N)(=O)=O)cs1 [FAMOTIDINE] | 3
